In ChEMBL document CHEMBL1131984, “Synthesis and antitumour activity of novel diterpenequinone salvicine and the analogs” (Bioorg Med Chem Lett, 1999):
Values joined by “and” are separate entries in the source; they are usually repeats but may differ in a detail not shown here. Identical values can stand only once.

Tests used:
HL-60 [1] = assay: In vitro cytotoxic activity against HL-60 human leukemia cell line by MTT assay (microculture terazolium colorimetric); assay type: functional, cell-based
SGC-7901 = assay: In vitro cytotoxic activity against SGC-7901 stomach cancer solid tumor cell line by MTT assay (microculture terazolium colorimetric); assay type: functional, cell-based; conditions: Homo sapiens
P388 = assay: In vitro cytotoxic activity against P388 mouse leukemia cell line by MTT assay (microculture terazolium colorimetric); assay type: functional, cell-based
SPC-A4 = assay: In vitro cytotoxic activity against SPC-A4 lung cancer solid tumor cell line by MTT assay (microculture terazolium colorimetric); assay type: functional, cell-based; conditions: Homo sapiens
HL-60 [2] = assay: In vitro cytotoxic activity against HL-60 human leukemia cell line was determined by MTT assay (microculture terazolium colorimetric); assay type: functional, cell-based
Mus musculus [3] = assay: (§1) Ratio of the tumor weight of mice at the initial stage and the final stage of the experiment was reported at a dose of 15 mg/kg i.p. (day 9); assay type: functional; conditions: route intraperitoneal
Mus musculus [4] = assay: (§2) Ratio of the tumor weight of mice at the initial stage and the final stage of the experiment was reported at a dose of 30 mg/kg (Q2dx10) administered i.p.; assay type: functional; conditions: route intraperitoneal
Mus musculus [5] = assay: In vivo inhibitory activity against human lung adenocarcinoma xenograft A-549 in mice at a dose of 20 mg/kg (Q2dx9) administered i.p.; assay type: functional; conditions: A549, ip, route intraperitoneal
Mus musculus [6] = assay: (§3) Ratio of the tumor weight of mice at the initial stage and the final stage of the experiment was reported at a dose of 15 mg/kg (day 6); assay type: functional
Mus musculus [7] = assay: Ratio of the tumor weight of mice at the initial stage and the final stage of the experiment was reported at a dose of 3.75 mg/kg (day 7); assay type: functional
Mus musculus [8] = assay: In vivo inhibitory activity against murine S-180 sarcoma at a dose of 7.5 mg/kg i.p. (day 7); assay type: functional; conditions: S-180, ip, 168 h, route intraperitoneal
Mus musculus [9] = assay: In vivo inhibitory activity against murine S-180 sarcoma at a dose of 15 mg/kg i.p. (day 6); assay type: functional; conditions: S-180, ip, 144 h, route intraperitoneal
Mus musculus [10] = assay: (§4) In vivo inhibitory activity against murine S-180 sarcoma at a dose of 15 mg/kg (day 6); assay type: functional; conditions: S-180, 144 h
Mus musculus [11] = assay: In vivo inhibitory activity against human lung adenocarcinoma xenograft A-549 in mice at a dose of 10 mg/kg (Q2dx10) administered i.p.; assay type: functional; conditions: route intraperitoneal
Mus musculus [12] = assay: In vivo inhibitory activity against human lung adenocarcinoma xenograft A-549 in mice at a dose of 30 mg/kg (Q2dx10) administered i.p.; assay type: functional; conditions: route intraperitoneal
Mus musculus [13] = assay: In vivo inhibitory activity against human lung adenocarcinoma xenograft LAX-83 in mice at a dose of 20 mg/kg (Q2dx10) administered i.p.; assay type: functional; conditions: route intraperitoneal
Mus musculus [14] = assay: In vivo inhibitory activity against murine S-180 sarcoma at a dose of 3.75 mg/kg i.p. (day 7); assay type: functional; conditions: S-180, ip, 168 h, route intraperitoneal
Mus musculus [15] = assay: (§5) In vivo inhibitory activity against murine S-180 sarcoma at a dose of 7.5 mg/kg (day 7); assay type: functional; conditions: S-180, 168 h
Mus musculus [16] = assay: Ratio of the tumor weight of mice at the initial stage and the final stage of the experiment was reported at a dose of 3.75 mg/kg i.p. (day 10); assay type: functional; conditions: route intraperitoneal
Mus musculus [17] = assay: In vivo inhibitory activity against murine Lewis lung cancer at a dose of 7.5 mg/kg i.p. (day10); assay type: functional; conditions: ip, 240 h, route intraperitoneal
Mus musculus [18] = assay: In vivo inhibitory activity against human lung adenocarcinoma xenograft LAX-83 in mice at a dose of 10 mg/kg (Q2dx10) administered i.p.; assay type: functional; conditions: route intraperitoneal; for inhibition in vivo at 10 mg/kg: ip
Mus musculus [19] = assay: as §2; assay type: functional; conditions: route intraperitoneal; remark: listed apart in the source
Mus musculus [20] = assay: (§6) Ratio of the tumor weight of mice at the initial stage and the final stage of the experiment was reported at a dose of 7.5 mg/kg (day 7); assay type: functional
Mus musculus [21] = assay: Ratio of the tumor weight of mice at the initial stage and the final stage of the experiment was reported at a dose of 3.75 mg/kg i.p. (day 7); assay type: functional; conditions: route intraperitoneal
Mus musculus [22] = assay: In vivo inhibitory activity against murine Lewis lung cancer at a dose of 15 mg/kg i.p. (day10); assay type: functional; conditions: route intraperitoneal
Mus musculus [23] = assay: In vivo inhibitory activity against human lung adenocarcinoma xenograft LAX-83 in mice at a dose of 30 mg/kg (Q2dx10) administered i.p.; assay type: functional; conditions: route intraperitoneal
Mus musculus [24] = assay: as §5; assay type: functional; conditions: S-180, 168 h; remark: listed apart in the source
Mus musculus [25] = assay: In vivo inhibitory activity against human lung adenocarcinoma xenograft A-549 in mice at a dose of 20 mg/kg (Q2dx10) administered i.p.; assay type: functional; conditions: route intraperitoneal
Mus musculus [26] = assay: In vivo inhibitory activity against murine S-180 sarcoma at a dose of 3.75 mg/kg (day 7); assay type: functional; conditions: S-180, 168 h
Mus musculus [27] = assay: as §4; assay type: functional; conditions: S-180, 144 h; remark: listed apart in the source
Mus musculus [28] = assay: Ratio of the tumor weight of mice at the initial stage and the final stage of the experiment was reported at a dose of 20 mg/kg (Q2dx10) administered i.p.; assay type: functional; conditions: route intraperitoneal
Mus musculus [29] = assay: Ratio of the tumor weight of mice at the initial stage and the final stage of the experiment was reported at a dose of 10 mg/kg (Q2dx10) administered i.p.; assay type: functional; conditions: route intraperitoneal
Mus musculus [30] = assay: (§7) Ratio of the tumor weight of mice at the initial stage and the final stage of the experiment was reported at a dose of 7.5 mg/kg i.p. (day 10); assay type: functional; conditions: route intraperitoneal
Mus musculus [31] = assay: Ratio of the tumor weight of mice at the initial stage and the final stage of the experiment was reported at a dose of 30 mg/kg (Q2dx9) administered i.p.; assay type: functional; conditions: route intraperitoneal
Mus musculus [32] = assay: as §7; assay type: functional; conditions: route intraperitoneal; remark: listed apart in the source
Mus musculus [33] = assay: In vivo inhibitory activity against human lung adenocarcinoma xenograft A-549 in mice at a dose of 10 mg/kg (Q2dx9) administered i.p.; assay type: functional; conditions: A549, ip, route intraperitoneal
Mus musculus [34] = assay: Ratio of the tumor weight of mice at the initial stage and the final stage of the experiment was reported at a dose of 20 mg/kg (Q2dx9) administered i.p.; assay type: functional; conditions: route intraperitoneal
Mus musculus [35] = assay: as §3; assay type: functional; remark: listed apart in the source
Mus musculus [36] = assay: as §6; assay type: functional; remark: listed apart in the source
Mus musculus [37] = assay: In vivo inhibitory activity against human lung adenocarcinoma xenograft A-549 in mice at a dose of 30 mg/kg (Q2dx9) administered i.p.; assay type: functional; conditions: A549, ip, route intraperitoneal
Mus musculus [38] = assay: In vivo inhibitory activity against murine Lewis lung cancer at a dose of 37.5 mg/kg i.p. (day10); assay type: functional; conditions: route intraperitoneal
Mus musculus [39] = assay: as §1; assay type: functional; conditions: route intraperitoneal; remark: listed apart in the source

## Cc1ccc2c(c1CCC1OC1(C)C)C(=O)C(=O)C(C(C)C)=C2 (stereo unspecified)
HL-60 [1]
  IC50: 4.48 µM
SGC-7901
  IC50: 71.5 µM
P388
  IC50: 3.38 µM
SPC-A4
  IC50: 1.88 µM

## Cc1ccc2c(c1CCC(Br)C(C)(C)O)C(=O)C(=O)C(C(C)C)=C2 (stereo unspecified)
HL-60 [1]
  IC50: 4.61 µM
SGC-7901
  IC50: 6.12 µM
P388
  IC50: 3.99 µM
SPC-A4
  IC50: 1.45 µM

## CC(C)=CCCc1c(C)ccc2c1C(=O)C(=O)C(C(C)C)=C2
HL-60 [2]
  IC50: 2.36 µM
SGC-7901
  IC50: 1.37 µM
P388
  IC50: 1.95 µM
SPC-A4
  IC50: 2.75 µM

## Cc1ccc2c(c1CCC(=O)C(C)C)C(=O)C(=O)C(C(C)C)=C2
HL-60 [1]
  IC50: 0.27 µM
SGC-7901
  IC50: 1.98 µM
P388
  IC50: 0.83 µM
SPC-A4
  IC50: 3.38 µM

## Cc1ccc2c(c1CCC(=O)O)C(=O)C(=O)C(C(C)C)=C2
HL-60 [1]
  IC50: 2.84 µM
SGC-7901
  IC50: 66.9 µM
P388
  IC50: 1.46 µM
SPC-A4
  IC50: 2.62 µM

## Cc1ccc2c(c1CCC(O)C(C)(C)O)C(=O)C(=O)C(C(C)C)=C2 (stereo unspecified)
HL-60 [1]
  IC50: 3.57 µM
Mus musculus [3]
  Tumor weight: 0.91 g
Mus musculus [4]
  Tumor weight: 0.93 g and 0.44 g
Mus musculus [5]
  inhibition in vivo at 20 mg/kg: 53.6%
Mus musculus [6]
  Tumor weight: 0.92 g and 1.06 g
Mus musculus [7]
  Tumor weight: 1.99 g and 1.72 g
Mus musculus [8]
  inhibition in vivo at 7.5 mg/kg: 48.9%
Mus musculus [9]
  inhibition in vivo at 15 mg/kg: 61.3%
Mus musculus [10]
  inhibition in vivo at 15 mg/kg: 44%
Mus musculus [11]; Mus musculus, A549, ip
  inhibition in vivo at 10 mg/kg: 48.2%
Mus musculus [11]; 10 mg/kg
  Inhibition: 30.15%
Mus musculus [12]
  Inhibition: 55.6% and 80.14%
Mus musculus [13]
  Inhibition: 26.73% and 17.53% and 9.39%
Mus musculus [14]
  inhibition in vivo at 3.75 mg/kg: 37.2%
Mus musculus [15]
  inhibition in vivo at 7.5 mg/kg: 32.2%
Mus musculus [16]
  Tumor weight: 1.28 g and 1.85 g
Mus musculus [17]
  inhibition in vivo at 7.5 mg/kg: 34%
SGC-7901
  IC50: 1.84 µM
Mus musculus [18]; Mus musculus
  inhibition in vivo at 10 mg/kg: 41%
Mus musculus [18]
  inhibition in vivo at 10 mg/kg: 28%
Mus musculus [18]; 10 mg/kg
  Inhibition: 31.23%
Mus musculus [19]
  Tumor weight: 0.72 g and 0.53 g and 1.02 g
Mus musculus [20]
  Tumor weight: 1.07 g and 1.4 g
Mus musculus [21]
  Tumor weight: 1.52 g
Mus musculus [22]; Mus musculus, Lung, ip, 240 h
  inhibition in vivo at 15 mg/kg: 49%
Mus musculus [22]; 15 mg/kg
  Inhibition: 54.5%
Mus musculus [23]
  Inhibition: 40.31% and 51.42% and 61.59%
Mus musculus [24]
  inhibition in vivo at 7.5 mg/kg: 35.5%
Mus musculus [25]
  Inhibition: 60.55% and 27.76%
Mus musculus [26]
  inhibition in vivo at 3.75 mg/kg: 8.4%
P388
  IC50: 3.49 µM
Mus musculus [27]
  inhibition in vivo at 15 mg/kg: 48.9%
Mus musculus [28]
  Tumor weight: 1.25 g [middle of 5 runs]
Mus musculus [29]
  Tumor weight: 1.13 g [middle of 5 runs]
Mus musculus [30]
  Tumor weight: 1.32 g
Mus musculus [31]
  Tumor weight: 1.67 g
Mus musculus [32]
  Tumor weight: 0.97 g
SPC-A4
  IC50: 2.46 µM
Mus musculus [33]
  inhibition in vivo at 10 mg/kg: 25.5%
Mus musculus [34]
  Tumor weight: 1.59 g
Mus musculus [35]
  Tumor weight: 0.93 g
Mus musculus [36]
  Tumor weight: 1.22 g
Mus musculus [37]
  inhibition in vivo at 30 mg/kg: 51.2%
Mus musculus [38]; Mus musculus, Lung, ip, 240 h
  inhibition in vivo at 37.5 mg/kg: 12.9%
Mus musculus [38]; 37.5 mg/kg
  Inhibition: 7.5%
Mus musculus [39]
  Tumor weight: 0.75 g
